Earlier results on two molecules are cited in US6916479B2, “Compositions containing an antifungal and a phospholipid” (Janssen Pharmaceutica N.V., priority 1997, dated 2005).

The structures appear in SMILES notation.

For the data set the following is noted: prior art medicated shampoo.

On to `CC(=O)N1CCN(c2ccc(OCC3COC(Cn4ccnc4)(c4ccc(Cl)cc4Cl)O3)cc2)CC1` (centres unmarked) [ketoconazole], for which the “number of patients not responding to particular medicated shampoo” value is recorded as “up to 30%”. In the case of `S=[Se]=S` [selenium sulfide], the “number of patients not responding to particular medicated shampoo” value is on record as “up to 40%”.
